What was measured:
[1] = Average crystalline domain size and crystallinity by X-ray diffraction; assay type: physicochemical; conditions: comparative particles as received or wet-milled (Table B)
Protocol: As used herein the term “essentially crystalline” is defined to mean that the particles are at least 90% crystalline as measured using X-ray diffraction techniques.
0.3 g of the drug was dissolved in 6 ml of the organic solvent, which may contain 0.3 g of a stabilizer. The organic solution was injected at 2 degrees C. with vigorous stirring into 30.0 g of the aqueous phase, which may contain a second stabilizer. The solvent was stripped from the resulting slurry, and the slurry freeze dried to yield a powder. […] Average size of the crystalline domains was determined using X-ray diffraction as known by those skilled in the art of particle size measurement, using Jade XRD pattern processing software (v.6).
(§1) Dissolution was monitored for 5 minutes by the loss in turbidity.

[2] = Dissolution by turbidity method (loss in turbidity); assay type: physicochemical; conditions: loss in turbidity monitored for 5 minutes
Protocol: as §1, §1

Crystalline Domain [1] | Percent of Dissolution after 5 min. ([2]; Carbamazepine sample: deionized water) | Compound | Percent of Dissolution after 5 min. ([2]; Danazol samples: deionized water plus sodium dodecyl sulfate)
475 Å | 100% | NC(=O)N1c2ccccc2C=Cc2ccccc21 [compound 23, Carbamazepine] | 
646 Å |  | COc1ccc2cc([C@H](C)C(=O)O)ccc2c1 [compound 22, Naproxen] | 

Compound | Crystalline Domain [1] | Percent of Dissolution after 5 min. ([2]; Carbamazepine sample: deionized water) | Percent of Dissolution after 5 min. ([2]; Danazol samples: deionized water plus sodium dodecyl sulfate)
C#C[C@]1(O)CC[C@H]2[C@@H]3CCC4=Cc5oncc5C[C@]4(C)[C@H]3CC[C@@]21C [compound 24, Danazol/USP 24] | 404 Å |  | 91%

From patent publication US20040028746A1, “Crystalline drug particles prepared using a controlled precipitation (recrystallization) process” (priority 2002, published 2004)
